Where two headings read alike, the source gives them in different places.
Assays:
human DAT = target: T1, human DAT (Homo sapiens, UniProt Q01959); assay: Uptake inhibition assay, DAT; type: cell-based; details: HEK293 cells expressing human DAT, 0.05 µM [3H]MPP+; for IC50: given as a range
T1 construct: expressed in transfected cells

human NET = target: T2, human NET (Homo sapiens, UniProt P23975); assay: cell-based; type: cell-based
T2 construct: expressed in transfected cells

human OCT1 [1] = target: T3, human OCT1 (Homo sapiens, UniProt O15245); assay: cell-based
T3 sequence (O15245 1-554): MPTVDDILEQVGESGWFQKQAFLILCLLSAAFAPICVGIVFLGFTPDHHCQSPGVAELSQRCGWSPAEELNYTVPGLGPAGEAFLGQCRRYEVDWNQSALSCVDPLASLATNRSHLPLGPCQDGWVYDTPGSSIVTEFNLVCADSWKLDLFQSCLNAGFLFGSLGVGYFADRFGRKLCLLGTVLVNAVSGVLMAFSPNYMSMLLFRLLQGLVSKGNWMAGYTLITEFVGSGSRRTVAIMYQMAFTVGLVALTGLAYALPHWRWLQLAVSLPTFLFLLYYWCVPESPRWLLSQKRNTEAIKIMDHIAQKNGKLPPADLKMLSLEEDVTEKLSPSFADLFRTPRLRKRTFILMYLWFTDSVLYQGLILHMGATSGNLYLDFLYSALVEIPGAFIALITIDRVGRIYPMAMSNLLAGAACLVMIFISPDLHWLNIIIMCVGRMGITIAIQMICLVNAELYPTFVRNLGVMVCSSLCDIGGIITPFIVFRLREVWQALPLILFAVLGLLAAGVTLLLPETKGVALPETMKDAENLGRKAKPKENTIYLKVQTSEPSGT
Protocol: (§1) Cells were cultured in Dulbecco’s modified Eagle’s medium (DMEM) supplemented with 10% fetal bovine serum and 250 μg/mL geneticin to maintain selection pressure.
(§2) HEK293 cells heterologously expressing the respective transporters were seeded onto poly-D-lysine (PDL)-coated 96-well plates at a density of ∼36,000 cells per well, 1 day before experiments. For the experiment, medium was replaced with 200 µL Krebs HEPES buffer (KHB; 120 mM NaCl, 3 mM KCl, 2 mM CaCl2·2H2O, 2 mM MgCl2·6H2O, 20 mM D-glucose, pH 7.3). Test compounds were dissolved in Milli-Q water or dimethyl sulfoxide (DMSO) at 10–100 mM stock concentrations. Cells were preincubated for 5 min with the compound of interest (diluted in KHB to the indicated concentrations). The preincubation solution was then replaced with 50 µL/well of diluted compound together with tritiated substrate (DAT, OCT1, OCT2, OCT3: 0.05 μM [^3H]MPP^+; NET: 0.02 μM [^3H]MPP^+; SERT: 0.1 μM [^3H]5-HT) for 1 min (SERT) or 3 min (DAT, NET, OCT1– OCT3). After the incubation, uptake was terminated by rapidly washing cell with 200 μL KHB, followed by addition of 200 μL Ultima Gold™ XR scintillation cocktail (PerkinElmer, MA, United States) to each well. […] Uptake in the absence of inhibitor was defined as 100%, while uptake in presence of a reference inhibitor (hDAT, hNET: 50 μM GBR12909; hSERT: 3 μM paroxetine; OCT1–OCT3: 100 µM D22) was defined as nonspecific uptake (0%) and subtracted from all values.
(§3) Uptake is expressed as a percentage of control (uptake in the absence of test compound). Data represent mean ± SD of ≥3 independent experiments.

human OCT2 [2] = target: T4, human OCT2 (Homo sapiens, UniProt O15244); assay: cell-based
T4 sequence (O15244 1-555): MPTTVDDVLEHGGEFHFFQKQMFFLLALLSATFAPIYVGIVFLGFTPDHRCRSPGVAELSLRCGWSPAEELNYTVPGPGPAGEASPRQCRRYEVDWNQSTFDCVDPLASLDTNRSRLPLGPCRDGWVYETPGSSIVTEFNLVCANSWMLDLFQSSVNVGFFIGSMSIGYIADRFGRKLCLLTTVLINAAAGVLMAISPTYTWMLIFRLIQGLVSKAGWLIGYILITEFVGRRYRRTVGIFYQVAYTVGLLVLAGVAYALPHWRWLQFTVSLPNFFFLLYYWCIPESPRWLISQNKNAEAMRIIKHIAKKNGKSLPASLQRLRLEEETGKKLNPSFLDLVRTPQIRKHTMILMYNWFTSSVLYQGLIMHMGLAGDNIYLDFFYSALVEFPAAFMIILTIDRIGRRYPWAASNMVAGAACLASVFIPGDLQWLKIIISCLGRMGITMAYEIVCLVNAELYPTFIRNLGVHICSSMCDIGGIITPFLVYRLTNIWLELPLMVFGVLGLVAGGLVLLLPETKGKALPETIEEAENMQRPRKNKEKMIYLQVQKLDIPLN
Protocol: as §1, §2, §3

human OCT3 [3] = target: T5, human OCT3 (Homo sapiens, UniProt O75751); assay: Uptake inhibition assay, OCT3; type: cell-based; details: HEK293 cells expressing human OCT3, 0.05 µM [3H]MPP+
T5 construct: expressed in transfected cells
T5 sequence (O75751 1-556): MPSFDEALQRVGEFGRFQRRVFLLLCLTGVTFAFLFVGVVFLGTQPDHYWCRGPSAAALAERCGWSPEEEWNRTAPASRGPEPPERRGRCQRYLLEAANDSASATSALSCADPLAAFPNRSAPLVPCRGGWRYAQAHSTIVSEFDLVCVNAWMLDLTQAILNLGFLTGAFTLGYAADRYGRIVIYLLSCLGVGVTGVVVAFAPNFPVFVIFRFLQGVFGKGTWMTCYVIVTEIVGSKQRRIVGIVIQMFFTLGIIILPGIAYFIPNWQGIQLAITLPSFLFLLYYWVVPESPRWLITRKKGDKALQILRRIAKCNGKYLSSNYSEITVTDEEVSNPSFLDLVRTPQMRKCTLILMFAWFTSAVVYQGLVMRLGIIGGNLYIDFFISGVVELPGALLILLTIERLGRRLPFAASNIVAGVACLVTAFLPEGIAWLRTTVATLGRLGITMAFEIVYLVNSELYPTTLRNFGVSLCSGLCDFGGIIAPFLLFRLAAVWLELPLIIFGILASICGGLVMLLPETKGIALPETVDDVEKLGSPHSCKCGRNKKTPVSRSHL
Protocol: as §1, §2, §3

human OCT3 [4] = target: T5, human OCT3; parameters: method as in Angenoorth et al., 2021; details: ref Angenoorth et al., 2021; cited from earlier work
human OCT1 [5] = target: T3, human OCT1; parameters: expressed in transfected cells; method as in Angenoorth et al., 2021; details: ref Angenoorth et al., 2021; cited from earlier work
human OCT2 [6] = target: T4, human OCT2; parameters: expressed in transfected cells; method as in Angenoorth et al., 2021; details: ref Angenoorth et al., 2021; cited from earlier work
[7] = HEK293 cells expressing human NET, 0.02 µM [3H]MPP+, given as a range, read-out: IC50 of NET uptake inhibition
[8] = HEK293 cells expressing human NET, 0.02 µM [3H]MPP+

T2 sequence (P23975 whole entry): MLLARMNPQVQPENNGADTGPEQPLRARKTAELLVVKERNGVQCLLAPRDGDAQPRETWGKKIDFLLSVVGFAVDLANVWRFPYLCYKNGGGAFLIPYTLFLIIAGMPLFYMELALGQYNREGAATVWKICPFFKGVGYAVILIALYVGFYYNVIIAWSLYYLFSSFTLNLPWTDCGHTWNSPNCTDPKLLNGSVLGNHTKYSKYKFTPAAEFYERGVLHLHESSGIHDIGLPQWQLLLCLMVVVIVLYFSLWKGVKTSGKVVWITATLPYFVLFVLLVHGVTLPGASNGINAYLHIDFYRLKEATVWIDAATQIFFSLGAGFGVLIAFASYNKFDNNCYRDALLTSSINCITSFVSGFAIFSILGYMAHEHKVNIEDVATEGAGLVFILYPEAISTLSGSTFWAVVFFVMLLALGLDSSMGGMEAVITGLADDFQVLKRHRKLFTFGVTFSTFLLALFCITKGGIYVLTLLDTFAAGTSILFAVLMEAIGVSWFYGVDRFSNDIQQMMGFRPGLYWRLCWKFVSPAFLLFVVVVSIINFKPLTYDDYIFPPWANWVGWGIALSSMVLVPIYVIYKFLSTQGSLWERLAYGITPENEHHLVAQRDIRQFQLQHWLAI
T1 sequence (Q01959 whole entry): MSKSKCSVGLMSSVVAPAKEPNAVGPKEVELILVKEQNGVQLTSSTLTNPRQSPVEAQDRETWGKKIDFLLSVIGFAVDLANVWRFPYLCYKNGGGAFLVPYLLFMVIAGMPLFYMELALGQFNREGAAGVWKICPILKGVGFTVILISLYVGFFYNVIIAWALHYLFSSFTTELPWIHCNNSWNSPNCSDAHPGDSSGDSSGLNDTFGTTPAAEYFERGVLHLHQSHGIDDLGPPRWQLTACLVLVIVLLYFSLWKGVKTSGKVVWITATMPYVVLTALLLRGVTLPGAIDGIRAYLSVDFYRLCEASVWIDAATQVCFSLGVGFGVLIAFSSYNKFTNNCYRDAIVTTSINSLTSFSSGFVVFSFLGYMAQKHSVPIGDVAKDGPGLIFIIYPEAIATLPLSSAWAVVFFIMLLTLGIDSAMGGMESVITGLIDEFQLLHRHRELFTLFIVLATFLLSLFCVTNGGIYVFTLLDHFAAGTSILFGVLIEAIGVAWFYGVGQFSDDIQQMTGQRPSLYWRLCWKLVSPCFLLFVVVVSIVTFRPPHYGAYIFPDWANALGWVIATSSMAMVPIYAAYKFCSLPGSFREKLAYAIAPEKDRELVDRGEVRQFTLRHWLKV

Compound	IC50 (human DAT) [µM]	Inhibition of OCT3-mediated transport (in words) (human OCT3 [3])	Inhibitory activity at DAT (in words) (human DAT)	Inhibitory activity at NET (in words) (human NET; [8])	further results
CCOC(=O)c1ccc(N)cc1 [benzocaine, Ethyl 4-Aminobenzoate]	17 to 27	failed to inhibit	–	–	IC50 (human NET; [7]): 215 to 444 µM; Inhibition of [3H]MPP+ transport via OCT1 (in words) (human OCT1 [1]; HEK293 cells expressing human OCT1, 0.05 µM [3H]MPP+): failed to inhibit; Inhibition of [3H]MPP+ transport via OCT2 (in words) (human OCT2 [2]; HEK293 cells expressing human OCT2, 0.05 µM [3H]MPP+): failed to inhibit
CC(=O)Nc1ccc(O)cc1 [paracetamol]	–	–	no measurable inhibitory activity	no measurable inhibitory activity	–
CCN(CC)CCOC(=O)c1ccc(N)cc1 [procaine]	15 to 29	none of the compounds—cocaine, procaine, or lidocaine—substantially inhibited OCT3-mediated transport except at near-millimolar concentrations	–	–	IC50 (human NET; [7]): 88 to 146 µM; IC50 (human OCT1 [1]): 5 to 9 µM; IC50 (human OCT2 [2]): 10 to 24 µM
COC(=O)[C@H]1[C@@H](OC(=O)c2ccccc2)C[C@@H]2CC[C@H]1N2C [cocaine]	–	none of the compounds—cocaine, procaine, or lidocaine—substantially inhibited OCT3-mediated transport except at near-millimolar concentrations	–	–	IC50 (human OCT1 [1]): 19 to 57 µM; IC50 (human OCT2 [2]): 15 to 42 µM; Inhibition of OCT3 (in words), previously reported (human OCT3 [4]): but not OCT3; Inhibition of OCT1 (in words), previously reported (human OCT1 [5]): inhibits OCT1 and OCT2; Inhibition of OCT2 (in words), previously reported (human OCT2 [6]): inhibits OCT1 and OCT2
CCOc1ccc(NC(C)=O)cc1 [phenacetin]	–	–	no measurable inhibitory activity	no measurable inhibitory activity	–
c1ccc([C@H]2CN3CCSC3=N2)cc1 [levamisole]	81 to 316	–	–	–	IC50 (human NET): 60 to 106 µM
CCN(CC)CC(=O)Nc1c(C)cccc1C [lidocaine]	–	–	no inhibitory potency	no inhibitory potency	–
